{"source": "patent US6344505B1", "about": "“Mono- and bis-benzotriazolyldihydroxybiaryl UV absorbers” (Cytec Industries Inc., priority 1999, dated 2002)", "key": {"[1]": {"test": "Thermal Gravimetric Analysis (TGA), temperature of 10 wt % loss (volatility)", "assay_type": "physicochemical", "details": "for TGA T-10%: Temperature at which 10% wt. loss is observed during TGA analysis; for TGAT=10% point: temperature at which 10 wt % loss occurs, TGA experiment", "description": "A reliable indication of the volatility of benzotriazole stabilizers is the temperatures at which 10 wt % loss occurs (TGAT=10%)."}, "[2]": {"test": "Solubility in xylene (compatibility)", "assay_type": "physicochemical"}, "[3]": {"test": "Florida weathering (5° south, direct, ASTM G7-89) of acrylic melamine coating", "details": "Table 11", "description": "COMPOUND 1 was formulated in a clear acrylic melamine coatings which were applied to aluminum panels for accelerated weathering testing as follows. COMPOUND 1 (2% based on total resin solids) was pre-dissolved in xylenes, alone and in combination with Sanduvor® 3058 HALS (0.5% or 1.0% based on total resin solids), and added to the clear acrylic melamine formulation given in Table 6. A formulation containing Tinuvin® 328 (2% based on total resin solids) was also prepared for comparison purposes. Unpolished aluminum panels, measuring 4″×12″, obtained from ACT Laboratories, Inc. (Hillsdale, Mich.) were coated with the clear coat formulation of Table 6. The draw-down technique, using WC-52 Wire-Cators™ (Leneta co., Ho-Ho-Kus, N.J.), was used to apply the clear coats to the panels. Coatings 2 mil thick were obtained. The clear coats were allowed to flash for 10 min. at ambient temperature and cured for 30 min. at 135° C.\nThe coatings of Example 13 were weathered in Miami, Fla. The testing was performed in accordance with ASTM G7-89 at a tilt angle of […] from the horizontal facing south with specimens mounted unbacked."}, "[4]": {"test": "UV absorption in toluene (λmax, molar absorptivity)", "assay_type": "physicochemical", "description": "The high molar absorptivity of 3,3′-bis-(2H-benzotriazol-2-yl)-5,5′-di-tert-octyl-1,1′-biphenyl-2,2′-diol, ε310=25,600 (toluene) and ε353=28,300 (toluene) are indicative of high ultraviolet absorption efficiency of the benzotriazole stabilizers of the present invention.\nThe bis-benzotriazoles of the invention absorb UV light at longer wavelengths than their non-dimeric or alkylene bridged dimeric counterparts. For example, the dimeric 3,3′-bis-(2H-benzotriazol-2-yl)-5,5′-di-tert-octyl-1,1′-biphenyl-2,2′-diol of the present invention absorbs at λmax(toluene)=353 nm. In contrast, the monomeric 2-(2H-benzotriazol-2-yl)-4-tert-octyl-phenol absorbs at a much lower wavelength, at λmax(toluene)=346 nm. Furthermore, the methylene bridged 2,2′-methylenedi{6-(2-benzotriazolyl)-4-tert-octyl-phenol} has an absorption at λmax(toluene)=350 nm, also substantially shorter than that of the bis-benzotriazoles of the present invention.\nPRODUCT A: 3,3′-bis-(2H-benzotriazol-2-yl)-5,5′-di-tert-octyl-1,1′-biphenyl-2,2′-diol (COMPOUND 1) (0.033 g), characterized by ^1H nuclear magnetic resonance spectroscopy (NMR), ultraviolet and mass spectroscopy; λmax(toluene): 310 and 353 nm; ε310=25,600; ε353=28,300; high resolution electron impact mass spectroscopy (HREI/MS): m/e=Found: 644.3815; Calculated: 644.3839; and\nPRODUCT B: 3-(2H-Benzotriazol-2-yl)-5,5′-di-tert-octyl-1,1′-biphenyl-2,2′-diol (0.144 g), characterized by ^1H nuclear magnetic resonance spectroscopy (NMR), ultraviolet spectroscopy, and mass spectroscopy; λmax(toluene): 332 nm; ε332=15,400; high resolution electron impact mass spectroscopy (HREI/MS): m/e=Found: 527.3498; Calculated: 527.3512."}}, "note": "“And” between values parts separate entries of the source, which are not always exact repeats. Equal values may be shown once. Read-outs that look alike come from different tables or passages of the source.", "data": [{"molecule": "CC(C)(C)CC(C)(C)c1cc(-c2cc(C(C)(C)CC(C)(C)C)cc(-n3nc4ccccc4n3)c2O)c(O)c(-n2nc3ccccc3n2)c1", "note": "[COMPOUND 1, 3,3′-bis-(2H-benzotriazol-2-yl)-5,5′-di-tert-octyl-1,1′-biphenyl-2,2′-diol]", "values": [{"measurement": "TGA T-10%", "setting": "[1]", "result": 381, "unit": "°C"}, {"measurement": "TGAT=10% point", "setting": "[1]", "result": 384, "unit": "°C"}, {"measurement": "melting point", "result": "209 to 211", "unit": "°C"}, {"measurement": "solubility in xylene", "setting": "[2]", "result": 6.0, "unit": "gram/100 ml"}, {"measurement": "efficiency in reducing total color change (delta E) relative to the unstabilized coating", "setting": "[3]", "result": "comparable efficiency"}, {"measurement": "λmax(toluene)", "setting": "[4]", "result": "310 nm and 353 nm"}, {"measurement": "molar absorptivity ε310", "setting": "[4]; 310 nm, in M-1 cm-1 (unit assumed)", "result": "25,600"}, {"measurement": "molar absorptivity ε353", "setting": "[4]; 353 nm, in M-1 cm-1 (unit assumed)", "result": "28,300"}, {"measurement": "λmax(toluene)", "setting": "[4]; listed as 3,3′-bis-(2H-benzotriazol-2-yl)-5,5′-di-tert-octyl-1,1′-biphenyl-2,2′-diol", "result": 353, "unit": "nm"}]}, {"molecule": "CC(C)(C)c1cc(-c2cc(C(C)(C)C)cc(-n3nc4ccccc4n3)c2O)c(O)c(-n2nc3ccccc3n2)c1", "note": "[COMPOUND 2, 3,3′-bis-(2H-benzotriazol-2-yl)-5,5′-di-tert-butyl-1,1′-biphenyl-2,2′-diol]", "values": [{"measurement": "melting point", "result": 234, "unit": "°C"}]}, {"molecule": "CC(C)(c1ccccc1)c1cc(-c2cc(C(C)(C)c3ccccc3)cc(-n3nc4ccccc4n3)c2O)c(O)c(-n2nc3ccccc3n2)c1", "note": "[COMPOUND 3, 3,3′-bis-(2H-benzotriazol-2-yl)-5,5′-di-cumyl-1,1′-biphenyl-2,2′-diol]", "values": [{"measurement": "TGA T-10%", "setting": "[1]", "result": 377, "unit": "°C"}]}, {"molecule": "Oc1c(-c2cccc(-n3nc4ccccc4n3)c2O)cccc1-n1nc2ccccc2n1", "note": "[COMPOUND 5, 3,3′-bis-(2H-benzotriazol-2-yl)-1,1′-biphenyl-2,2′-diol]", "values": [{"measurement": "TGA T-10%", "setting": "[1]", "result": 383, "unit": "°C"}]}, {"molecule": "CC(C)(C)CC(C)(C)c1cc(Cc2cc(C(C)(C)CC(C)(C)C)cc(-n3nc4ccccc4n3)c2O)c(O)c(-n2nc3ccccc3n2)c1", "note": "[LA-31 ®, 2,2′-Methylenedi [Bis-2-benzotriazolyl)-4-tert-octylphenol]", "values": [{"measurement": "TGA T-10%", "setting": "[1]", "result": 380, "unit": "°C"}]}, {"molecule": "CC(C)(C)CC(C)(C)c1cc(Cc2cc(C(C)(C)CC(C)(C)C)cc(-n3nc4ccccc4n3)c2O)c(O)c(-n2nc3ccccc3n2)c1", "note": "[MIXXIM BB/100®, 2,2′-methylenedi{6-(2-benzotriazolyl)-4-tert-octyl-phenol}, reference compound]", "values": [{"measurement": "TGAT=10% point", "setting": "[1]", "result": 370, "unit": "°C"}, {"measurement": "solubility in xylene", "setting": "[2]", "result": 2.5, "unit": "gram/100 ml"}, {"measurement": "λmax(toluene)", "setting": "[4]", "result": 350, "unit": "nm"}]}, {"molecule": "CC(C)(C)CC(C)(C)c1ccc(O)c(-c2cc(C(C)(C)CC(C)(C)C)cc(-n3nc4ccccc4n3)c2O)c1", "note": "[PRODUCT B, 3-(2H-Benzotriazol-2-yl)-5,5′-di-tert-octyl-1,1′-biphenyl-2,2′-diol]", "values": [{"measurement": "λmax(toluene)", "setting": "[4]", "result": 332, "unit": "nm"}, {"measurement": "molar absorptivity ε332", "setting": "[4]; 332 nm", "result": "15,400"}]}, {"molecule": "Cc1ccc(O)c(-n2nc3ccccc3n2)c1", "note": "[Tinuvin P ™, 2-(2H-benzotriazol-2-yl)-4-methyl-phenol]", "values": [{"measurement": "TGA T-10%", "setting": "[1]", "result": 205, "unit": "°C"}]}, {"molecule": "CCC(C)(C)c1cc(-n2nc3ccccc3n2)c(O)c(C(C)(C)CC)c1", "note": "[Tinuvin ® 328, reference compound]", "values": [{"measurement": "efficiency in reducing total color change (delta E) relative to the unstabilized coating", "setting": "[3]", "result": "comparable efficiency"}]}, {"molecule": "CC(C)(c1ccccc1)c1cc(-n2nc3ccccc3n2)c(O)c(C(C)(C)c2ccccc2)c1", "note": "[Tinuvin ®-234, 2-(2H-Benzotriazol-2yl)-4,6-bis (α,α-dimethylbenzyl) phenol]", "values": [{"measurement": "TGA T-10%", "setting": "[1]", "result": 312, "unit": "°C"}]}, {"molecule": "CC(C)(C)CC(C)(C)c1ccc(O)c(-n2nc3ccccc3n2)c1", "note": "[UV-5411, 2-(2H-benzotriazol-2-yl)-4-tert-octyl-phenol]", "values": [{"measurement": "TGA T-10%", "setting": "[1]", "result": 245, "unit": "°C"}, {"measurement": "TGAT=10% point", "setting": "[1]", "result": 247, "unit": "°C"}, {"measurement": "λmax(toluene)", "setting": "[4]", "result": 346, "unit": "nm"}]}]}
